Reference: patent US12365665B2, “Solid form of diaminopyrimidine compound or hydrate thereof, preparation method therefor, and application thereof” (BEIJING TIDE PHARMACEUTICAL CO., LTD., priority 2020, dated 2025)

What was measured:
Type in all cases: physicochemical
[1] = High temperature stability test (XRPD); conditions: 60° C.
Protocol: (§1) The detection instruments and conditions used in the following examples are as follows: • (1) X-Ray Powder Diffraction (XRPD) • Instrument Model: Bruker D8 advance, equipped with a LynxEye detector • Test conditions: the anode target material was copper, the light pipe was set to (40 KV 40 mA), the 2θ scan angle for the sample was from 3° to 40°, and scan step was 0.02°. • (2) Differential Scanning Calorimetry Analysis (DSC) • Instrument Model: TA Discovery DSC 250 (TA Instruments, US) • Test conditions: the heating rate was 10° C./min, and dry nitrogen was used as the purge gas. • (3) Thermogravimetric Analysis (TGA) • Instrument Model: Discovery TGA 55 (TA Instruments, US) • Test conditions: automatic weighing in the heating furnace, the heating rate was 10° C./min, and dry nitrogen was used as the purge gas. • (4) Polarizing Microscope Analysis (PLM) • Instrument Model: Polarizing Microscope ECLIPSE LV100POL (Nikon, JPN)
The stability of the crystalline form I prepared in Example 2 was investigated at 60° C., and the XRPD pattern was measured with a Bruker D8 advance X-ray powder diffractometer (see FIG. 19).

[2] = Physical grinding stability test (XRPD); conditions: physically ground for 2 minutes
Protocol: as §1
The crystalline form I prepared in Example 2 was physically ground for 2 minutes, and then the XRPD pattern was measured with a Bruker D8 advance X-ray powder diffractometer (see FIG. 21).

[3] = Room temperature stability test (XRPD before and after storage); conditions: sealed in medicinal low-density polyethylene bag, 180 days
Protocol: as §1, with “JPN) […]” for “JPN)”

[4] = High humidity stability test (XRPD); conditions: 92.5% RH/25° C., after 5, 10 and 30 days
Protocol: as §1
The stability of the crystalline form I prepared in Example 2 was investigated under a condition of 92.5% RH/25° C., and the XRPD pattern was measured with a Bruker D8 advance X-ray powder diffractometer (see FIG. 20).

With `C#Cc1cc(Oc2cnc(N)nc2N)c(C(C)C)cn1` [crystalline form I, 5-((2-ethynyl-5-isopropylpyridin-4-yl)oxy)pyrimidine-2,4-diamine] the “change in the crystalline form after storage under a high temperature condition (summary statement)” value ([1]; 30 days) was “its crystalline form did not change”, the “change in the crystalline form (XRPD) at high temperature” value ([1]; after 5, 10 and 30 days) was “no change in the crystalline form” and the “change in the crystalline form (XRPD) after physical grinding” value [2] was “no change in the crystalline form”. The “change in the crystalline form (XRPD) after storage at room temperature” value [3] was “no change in the crystalline form” and the “change in the crystalline form (XRPD) at high humidity” value [4] was “no change in the crystalline form”.
